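Test compounds were applied to cells in 96-well plates for 48 hours at 5 doses. The concentration for 50% growth inhibition is given as GI50.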 Active and inactive are the calls of the source. Rule as the data show it: active = GI50 up to about 1.1 µM and inactive = higher.
Legend:
Assay in all cases: inhibition of tumour cell growth, NCI panel, 48 h
LXFL 529 = test system: LXFL 529
786-0 = test system: 786-0
M14 = test system: M14
CCRF-CEM = test system: CCRF-CEM
HL-60 = test system: HL-60
UACC-62 = test system: UACC-62
OVCAR-3 = test system: OVCAR-3
HOP-18 = test system: HOP-18
Malme-3M = test system: Malme-3M
A549 = test system: A549
SK-MEL-5 = test system: SK-MEL-5
HT-29 = test system: HT-29
DMS-114 = test system: DMS-114
SF-539 = test system: SF-539
K562 = test system: K562
TK-10 = test system: TK-10
ACHN = test system: ACHN
UACC-257 = test system: UACC-257
SNB-78 = test system: SNB-78
SF-295 = test system: SF-295
SK-MEL-28 = test system: SK-MEL-28
XF498 = test system: XF498
KM12 = test system: KM12
DLD-1 = test system: DLD-1
NCI-H23 = test system: NCI-H23
MOLT-4 = test system: MOLT-4
SF-268 = test system: SF-268
DMS-273 = test system: DMS-273
U-251 = test system: U-251
UO-31 = test system: UO-31
SK-MEL-2 = test system: SK-MEL-2
OVCAR-4 = test system: OVCAR-4
SNB-75 = test system: SNB-75
HCT-15 = test system: HCT-15
NCI-H522 = test system: NCI-H522
SW-620 = test system: SW-620
OVCAR-8 = test system: OVCAR-8
NCI-H226 = test system: NCI-H226
LOX IMVI = test system: LOX IMVI
M19-MEL = test system: M19-MEL
SK-OV-3 = test system: SK-OV-3
NCI-H460 = test system: NCI-H460
HCT-116 = test system: HCT-116
SN12C = test system: SN12C
RXF 393 = test system: RXF 393
EKVX = test system: EKVX
KM-20L2 = test system: KM-20L2
SNB-19 = test system: SNB-19
OVCAR-5 = test system: OVCAR-5
A498 = test system: A498
COLO 205 = test system: COLO 205
RPMI-8226 = test system: RPMI-8226
HOP-92 = test system: HOP-92
HCC 2998 = test system: HCC 2998
IGROV-1 = test system: IGROV-1
HOP-62 = test system: HOP-62
SR = test system: SR
CAKI-1 = test system: CAKI-1

Q: `CC(Oc1ccc(OCC2CCCCC2)cc1)C(N)=O` (stereo not given) was tested. Which GI50 (LXFL 529) did it give?
A: > 100 µM (inactive)

Q: What about the GI50 (786-0) of the same compound?
A: > 100 µM (inactive)

Q: And the GI50 (M14)?
A: > 100 µM (inactive)

Q: And the GI50 (CCRF-CEM)?
A: > 100 µM (inactive)

Q: What about the GI50 (HL-60) of the same compound?
A: > 100 µM (inactive)

Q: What about the GI50 (UACC-62) of the same compound?
A: > 100 µM (inactive)

Q: And the GI50 (OVCAR-3)?
A: > 100 µM (inactive)

Q: What about the GI50 (HOP-18) of the same compound?
A: > 100 µM (inactive)

Q: And the GI50 (Malme-3M)?
A: > 100 µM (inactive)

Q: What about the GI50 (A549) of the same compound?
A: > 100 µM (inactive)

Q: What about the GI50 (SK-MEL-5) of the same compound?
A: > 100 µM (inactive)

Q: And the GI50 (HT-29)?
A: > 100 µM (inactive)

Q: And the GI50 (DMS-114)?
A: 73.6 µM (inactive)

Q: And the GI50 (SF-539)?
A: > 100 µM (inactive)

Q: What about the GI50 (K562) of the same compound?
A: > 100 µM (inactive)

Q: And the GI50 (TK-10)?
A: > 100 µM (inactive)

Q: And the GI50 (ACHN)?
A: > 100 µM (inactive)

Q: And the GI50 (UACC-257)?
A: 72.3 µM (inactive)

Q: What about the GI50 (SNB-78) of the same compound?
A: > 100 µM (inactive)

Q: And the GI50 (SF-295)?
A: > 100 µM (inactive)

Q: And the GI50 (SK-MEL-28)?
A: > 100 µM (inactive)

Q: And the GI50 (XF498)?
A: > 100 µM (inactive)

Q: What about the GI50 (KM12) of the same compound?
A: > 100 µM (inactive)

Q: And the GI50 (DLD-1)?
A: > 100 µM (inactive)

Q: What about the GI50 (NCI-H23) of the same compound?
A: > 100 µM (inactive)

Q: What about the GI50 (MOLT-4) of the same compound?
A: > 100 µM (inactive)

Q: What about the GI50 (SF-268) of the same compound?
A: > 100 µM (inactive)

Q: What about the GI50 (DMS-273) of the same compound?
A: > 100 µM (inactive)

Q: What about the GI50 (U-251) of the same compound?
A: > 100 µM (inactive)

Q: What about the GI50 (UO-31) of the same compound?
A: > 100 µM (inactive)

Q: And the GI50 (SK-MEL-2)?
A: > 100 µM (inactive)

Q: What about the GI50 (OVCAR-4) of the same compound?
A: > 100 µM (inactive)

Q: And the GI50 (SNB-75)?
A: > 100 µM (inactive)

Q: And the GI50 (HCT-15)?
A: > 100 µM

Q: And the GI50 (NCI-H522)?
A: 87.9 µM (inactive)

Q: And the GI50 (SW-620)?
A: > 100 µM (inactive)

Q: What about the GI50 (OVCAR-8) of the same compound?
A: > 100 µM (inactive)

Q: What about the GI50 (NCI-H226) of the same compound?
A: > 100 µM (inactive)

Q: What about the GI50 (LOX IMVI) of the same compound?
A: > 100 µM (inactive)

Q: And the GI50 (M19-MEL)?
A: > 100 µM (inactive)

Q: And the GI50 (SK-OV-3)?
A: > 100 µM (inactive)

Q: And the GI50 (NCI-H460)?
A: > 100 µM (inactive)

Q: What about the GI50 (HCT-116) of the same compound?
A: > 100 µM (inactive)

Q: And the GI50 (SN12C)?
A: > 100 µM (inactive)

Q: `Brc1cc2c(cc1Br)CN(c1ccccc1)C2` was tested. Which GI50 (RXF 393) did it give?
A: 99.8 µM (inactive)

Q: What about the GI50 (LXFL 529) of the same compound?
A: > 100 µM (inactive)

Q: What about the GI50 (786-0) of the same compound?
A: > 100 µM (inactive)

Q: And the GI50 (M14)?
A: > 100 µM (inactive)

Q: And the GI50 (CCRF-CEM)?
A: > 100 µM (inactive)

Q: And the GI50 (HL-60)?
A: > 100 µM (inactive)

Q: What about the GI50 (UACC-62) of the same compound?
A: > 100 µM (inactive)

Q: And the GI50 (EKVX)?
A: > 100 µM (inactive)

Q: What about the GI50 (OVCAR-3) of the same compound?
A: > 100 µM (inactive)

Q: What about the GI50 (Malme-3M) of the same compound?
A: > 100 µM (inactive)

Q: What about the GI50 (KM-20L2) of the same compound?
A: > 100 µM (inactive)

Q: What about the GI50 (A549) of the same compound?
A: > 100 µM (inactive)

Q: What about the GI50 (SK-MEL-5) of the same compound?
A: > 100 µM (inactive)

Q: What about the GI50 (HT-29) of the same compound?
A: > 100 µM (inactive)

Q: And the GI50 (DMS-114)?
A: > 100 µM (inactive)

Q: What about the GI50 (SF-539) of the same compound?
A: > 100 µM (inactive)

Q: What about the GI50 (K562) of the same compound?
A: 80 µM (inactive)

Q: What about the GI50 (TK-10) of the same compound?
A: > 100 µM (inactive)

Q: And the GI50 (ACHN)?
A: > 100 µM (inactive)

Q: What about the GI50 (UACC-257) of the same compound?
A: > 100 µM (inactive)

Q: What about the GI50 (SNB-78) of the same compound?
A: > 100 µM (inactive)

Q: And the GI50 (SF-295)?
A: > 100 µM (inactive)

Q: And the GI50 (SK-MEL-28)?
A: > 100 µM (inactive)

Q: And the GI50 (SNB-19)?
A: > 100 µM (inactive)

Q: And the GI50 (OVCAR-5)?
A: > 100 µM (inactive)

Q: What about the GI50 (A498) of the same compound?
A: > 100 µM (inactive)

Q: And the GI50 (COLO 205)?
A: > 100 µM (inactive)

Q: What about the GI50 (XF498) of the same compound?
A: > 100 µM (inactive)

Q: And the GI50 (KM12)?
A: > 100 µM (inactive)

Q: What about the GI50 (RPMI-8226) of the same compound?
A: > 100 µM (inactive)

Q: And the GI50 (HOP-92)?
A: 41.5 µM (inactive)

Q: What about the GI50 (DLD-1) of the same compound?
A: 68.2 µM (inactive)

Q: And the GI50 (NCI-H23)?
A: > 100 µM (inactive)

Q: What about the GI50 (MOLT-4) of the same compound?
A: > 100 µM (inactive)

Q: What about the GI50 (SF-268) of the same compound?
A: > 100 µM (inactive)

Q: What about the GI50 (DMS-273) of the same compound?
A: > 100 µM (inactive)

Q: What about the GI50 (U-251) of the same compound?
A: > 100 µM (inactive)

Q: What about the GI50 (UO-31) of the same compound?
A: > 100 µM (inactive)

Q: And the GI50 (HCC 2998)?
A: > 100 µM (inactive)

Q: And the GI50 (SK-MEL-2)?
A: > 100 µM (inactive)

Q: And the GI50 (OVCAR-4)?
A: > 100 µM (inactive)

Q: And the GI50 (SNB-75)?
A: > 100 µM (inactive)

Q: What about the GI50 (HCT-15) of the same compound?
A: 53.8 µM

Q: What about the GI50 (SW-620) of the same compound?
A: > 100 µM (inactive)

Q: What about the GI50 (OVCAR-8) of the same compound?
A: > 100 µM (inactive)

Q: What about the GI50 (IGROV-1) of the same compound?
A: > 100 µM (inactive)

Q: What about the GI50 (NCI-H226) of the same compound?
A: > 100 µM (inactive)

Q: And the GI50 (LOX IMVI)?
A: > 100 µM (inactive)

Q: What about the GI50 (HOP-62) of the same compound?
A: > 100 µM (inactive)

Q: What about the GI50 (M19-MEL) of the same compound?
A: > 100 µM (inactive)

Q: And the GI50 (SK-OV-3)?
A: > 100 µM (inactive)

Q: And the GI50 (NCI-H460)?
A: > 100 µM (inactive)

Q: What about the GI50 (HCT-116) of the same compound?
A: > 100 µM (inactive)

Q: And the GI50 (SN12C)?
A: > 100 µM (inactive)

Q: Which GI50 (LXFL 529) does the source give for `O=C(Nc1cccc(C(F)(F)F)c1)c1cc(-c2ccccc2)nc(S)n1` here?
A: > 100 µM (inactive)

Q: And the GI50 (M14)?
A: > 100 µM (inactive)

Q: What about the GI50 (HL-60) of the same compound?
A: > 100 µM (inactive)

Q: What about the GI50 (OVCAR-3) of the same compound?
A: > 100 µM (inactive)

Q: And the GI50 (HOP-18)?
A: > 100 µM (inactive)

Q: And the GI50 (Malme-3M)?
A: > 100 µM (inactive)

Q: And the GI50 (KM-20L2)?
A: > 100 µM (inactive)

Q: And the GI50 (HT-29)?
A: > 100 µM (inactive)

Q: And the GI50 (UACC-257)?
A: > 100 µM (inactive)

Q: What about the GI50 (SF-295) of the same compound?
A: > 100 µM (inactive)

Q: What about the GI50 (SNB-19) of the same compound?
A: > 100 µM (inactive)

Q: And the GI50 (SR)?
A: > 100 µM (inactive)

Q: And the GI50 (OVCAR-5)?
A: > 100 µM (inactive)

Q: What about the GI50 (COLO 205) of the same compound?
A: > 100 µM (inactive)

Q: What about the GI50 (KM12) of the same compound?
A: > 100 µM (inactive)

Q: What about the GI50 (HOP-92) of the same compound?
A: > 100 µM (inactive)

Q: What about the GI50 (DMS-273) of the same compound?
A: > 100 µM (inactive)

Q: And the GI50 (UO-31)?
A: > 100 µM (inactive)

Q: And the GI50 (CAKI-1)?
A: > 100 µM (inactive)

Q: And the GI50 (HCC 2998)?
A: > 100 µM (inactive)

Q: What about the GI50 (SK-MEL-2) of the same compound?
A: > 100 µM (inactive)

Q: And the GI50 (OVCAR-4)?
A: > 100 µM (inactive)

Q: And the GI50 (HCT-15)?
A: > 100 µM

Q: And the GI50 (SW-620)?
A: > 100 µM (inactive)

Q: What about the GI50 (OVCAR-8) of the same compound?
A: > 100 µM (inactive)

Q: What about the GI50 (NCI-H226) of the same compound?
A: > 100 µM (inactive)

Q: And the GI50 (LOX IMVI)?
A: > 100 µM (inactive)

Q: What about the GI50 (HOP-62) of the same compound?
A: > 100 µM (inactive)

Q: What about the GI50 (M19-MEL) of the same compound?
A: > 100 µM (inactive)

Q: What about the GI50 (NCI-H460) of the same compound?
A: > 100 µM (inactive)

Q: And the GI50 (HCT-116)?
A: > 100 µM (inactive)

Q: What about the GI50 (SN12C) of the same compound?
A: > 100 µM (inactive)
